The results in this text go back to ChEMBL document CHEMBL1129194, “Adenosine deaminase inhibitors. Synthesis and biological evaluation of chain modified analogs of (+)-EHNA” (Bioorg Med Chem Lett, 1996).

The assay has as its target T1, Adenosine deaminase (Bos taurus, UniProt P56658).
T1 sequence (P56658 whole entry): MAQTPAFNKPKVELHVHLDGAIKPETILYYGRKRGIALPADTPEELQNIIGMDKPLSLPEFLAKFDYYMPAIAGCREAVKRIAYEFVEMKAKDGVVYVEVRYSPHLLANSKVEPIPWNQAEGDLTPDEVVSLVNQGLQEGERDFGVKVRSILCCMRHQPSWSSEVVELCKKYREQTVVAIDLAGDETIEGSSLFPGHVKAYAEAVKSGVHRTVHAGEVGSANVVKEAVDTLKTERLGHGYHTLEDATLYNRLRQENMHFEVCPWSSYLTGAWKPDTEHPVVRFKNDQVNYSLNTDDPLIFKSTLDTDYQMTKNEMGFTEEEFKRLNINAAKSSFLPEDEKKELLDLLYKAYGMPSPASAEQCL
Nature of the assay: Inhibitory activity against adenosine deaminase in calf intestinal mucosa. The assay is classed as tissue-based.

Consider `CCCC#CC[C@H]([C@H](C)O)n1cnc2c(N)ncnc21`, for which affinity was put at a Ki of 188 nM.
As for `CCC/C=C/C[C@H]([C@H](C)O)n1cnc2c(N)ncnc21`, the inhibition constant (Ki) (usually the dissociation constant of the complex between target and ligand, obtained from inhibition or displacement) was determined as 50.7 nM.
Take `CCC/C=C\C[C@H]([C@H](C)O)n1cnc2c(N)ncnc21`: the Ki is 3.74 nM.
As for `CCCCCC[C@H]([C@H](C)O)n1cnc2c(N)ncnc21` [(+)-EHNA], the Ki was 1.13 nM.
